Laboratory results as given in patent US20090062267A1, “L-ALANINE DERIVATIVES AS a5beta1 ANTAGONISTS” (ASTRAZENECA AB, priority 2007, published 2009).
pIC50: −log10 of the molar value.

molecular target: recombinant human α5β1 (Homo sapiens, UniProt P05556+P08648); assay: In Vitro Binding Assay (a): inhibition of binding of α5β1 integrin to a fragment of human fibronectin (Fn9-10), Origen electrochemiluminescence; conditions: geometric mean where tested more than once
Text: The assay determined the ability of compounds to inhibit binding of α5β1 integrin to a cognate ligand, a fragment of human fibronectin. The assay used Origen technology (IGEN International) to measure the compound activity. Briefly, α5β1 integrin was coated onto epoxy-paramagnetic beads (Dynal Biotech UK, Bromborough, Wirral, CH62 3QL, UK, Catalogue No 140.11) and biotinylated-fibronectin ligand was coupled to strepatividin labeled Tag-NHS-Ester (BioVeris Corporation, Witney, Oxfordshire, OX28 4GE, UK, Catalogue No 110034). The ruthenium-labeled tag emits an electrochemiluminescence signal upon stimulation which is detected by the Origen reader. Thus, interaction of integrin and ligand causes association of bead and tag, and the resulting electrochemiluminescence signal reflects the level of integrin interaction with fibronectin.
20 μg of recombinant human α5β1 was coated onto 4×10(7) epoxy-paramagnetic beads according to manufacturers instructions at 4° C. for 24 hours. Integrin coating and corresponding activity was subsequently measured for each batch but typically, 25 ng of coated protein was used per assay well.
A DNA fragment encoding the domains 9-10 (amino-acids 1325-1509) of human fibronectin (Swiss-Prot Accession No. P02751) was isolated from cDNA libraries using standard molecular biology and PCR cloning techniques. The cDNA fragment was sub-cloned into a pT73.3 expression vector containing a GST-epitope tag (developed at AstraZeneca; Bagnall et al., Protein Expression and Purification, 2003, 27: 1-11). Following expression in E. coli, the expressed protein, termed Fn9-10, was purified using the GST-tag using standard purification techniques. The recombinant Fn9-10 was subsequently biotinylated using a EZ-link Sulfo-NHS-LC-Biotinylation kit (Perbio Science UK Ltd., Cramlington, Northumberland, NE23 1WA, UK, Catalogue No. 21335) and made to give a final concentration of approximately 1 mg/ml. Tag-NHS-Ester was labeled with streptavidin by incubation at room temperature following manufacturers instructions and buffer-exchanged into PBS to give a concentration of 0.5 mg/ml. Immediately prior to the assay, biotinylated-Fn9-10 and Streptavidin-labeled Tag were diluted in Assay Buffer to give a final concentrations of 0.6 ug/ml and 1.5 ug/ml respectively. The Fn9-10 and Tag solutions were then mixed together in equal volumes and incubated on ice for at least 30 minutes prior to the assay.
Aliquots (20 μl) of each compound dilution were placed into each well of a 384-well round bottomed polypropylene plate (Matrix Technologies, Wilmslow, Cheshire, SK9 3LP, Catalogue No. 4340 384).
For the assay, 25 ng (20 ul) of a5b1-bead suspension and 40 μl of the Fn9-10/Tag pre-incubated solution were added to each well containing 20 μl of compound or control solution. Assay plates were then incubated at room temperature for a minimum of 6 hours before being analysed on an Origen plate reader. The minimum value was subtracted from all values, and the signal was plotted against compound concentration to generate IC50 data.
The data in the above table was generated in an assay substantially as described above in relation to Binding Assay (a). Some of the compounds shown in the table were tested more than once in the assay. For those compounds the IC50 value shown is the geometric mean of the measured IC50 values.

Chain of recombinant human α5β1 (P08648 42-1049): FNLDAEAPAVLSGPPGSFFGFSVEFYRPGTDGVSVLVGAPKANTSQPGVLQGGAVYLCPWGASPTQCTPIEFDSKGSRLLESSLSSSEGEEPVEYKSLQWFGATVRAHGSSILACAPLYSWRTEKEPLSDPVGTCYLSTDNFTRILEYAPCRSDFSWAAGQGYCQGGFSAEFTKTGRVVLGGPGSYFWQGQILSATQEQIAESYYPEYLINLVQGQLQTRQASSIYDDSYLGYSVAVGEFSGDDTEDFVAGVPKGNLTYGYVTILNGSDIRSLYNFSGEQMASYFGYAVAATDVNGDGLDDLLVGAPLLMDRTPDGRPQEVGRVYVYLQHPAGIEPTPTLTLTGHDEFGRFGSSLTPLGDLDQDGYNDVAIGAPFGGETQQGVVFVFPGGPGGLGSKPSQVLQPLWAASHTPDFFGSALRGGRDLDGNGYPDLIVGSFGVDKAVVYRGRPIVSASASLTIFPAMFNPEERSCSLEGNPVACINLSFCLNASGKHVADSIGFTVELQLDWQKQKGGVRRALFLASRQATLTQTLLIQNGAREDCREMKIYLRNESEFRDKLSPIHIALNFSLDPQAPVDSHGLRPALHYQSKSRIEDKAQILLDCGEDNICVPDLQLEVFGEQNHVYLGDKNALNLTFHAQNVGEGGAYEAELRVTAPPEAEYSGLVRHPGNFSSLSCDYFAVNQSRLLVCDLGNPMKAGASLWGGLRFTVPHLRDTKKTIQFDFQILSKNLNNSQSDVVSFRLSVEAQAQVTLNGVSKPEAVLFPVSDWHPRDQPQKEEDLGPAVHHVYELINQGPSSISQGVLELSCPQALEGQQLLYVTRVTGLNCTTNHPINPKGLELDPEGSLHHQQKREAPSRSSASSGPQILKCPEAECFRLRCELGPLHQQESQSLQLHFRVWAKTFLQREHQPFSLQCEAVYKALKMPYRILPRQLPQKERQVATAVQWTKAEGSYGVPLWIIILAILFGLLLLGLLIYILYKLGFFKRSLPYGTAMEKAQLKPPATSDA
Chain of recombinant human α5β1 (P05556 21-798): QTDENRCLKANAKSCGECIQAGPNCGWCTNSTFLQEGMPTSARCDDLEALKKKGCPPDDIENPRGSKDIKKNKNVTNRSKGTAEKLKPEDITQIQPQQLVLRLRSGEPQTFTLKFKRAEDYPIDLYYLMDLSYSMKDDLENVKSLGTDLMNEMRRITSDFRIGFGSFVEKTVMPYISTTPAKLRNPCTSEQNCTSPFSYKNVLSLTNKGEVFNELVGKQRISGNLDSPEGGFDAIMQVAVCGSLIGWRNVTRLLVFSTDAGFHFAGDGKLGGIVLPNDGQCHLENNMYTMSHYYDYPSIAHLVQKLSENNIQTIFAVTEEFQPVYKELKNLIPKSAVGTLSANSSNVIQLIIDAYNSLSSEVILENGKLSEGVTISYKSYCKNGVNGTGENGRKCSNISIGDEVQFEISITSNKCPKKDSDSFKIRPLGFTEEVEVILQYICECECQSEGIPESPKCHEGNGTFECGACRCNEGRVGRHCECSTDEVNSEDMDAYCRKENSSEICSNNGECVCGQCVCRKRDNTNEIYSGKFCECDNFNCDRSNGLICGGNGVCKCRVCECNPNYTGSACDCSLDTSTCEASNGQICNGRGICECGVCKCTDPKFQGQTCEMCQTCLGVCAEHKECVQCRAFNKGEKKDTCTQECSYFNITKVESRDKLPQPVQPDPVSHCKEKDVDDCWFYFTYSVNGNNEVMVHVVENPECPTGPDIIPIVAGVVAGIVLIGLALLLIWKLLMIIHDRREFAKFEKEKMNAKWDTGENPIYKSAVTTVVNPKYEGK

Compound | pIC50
CNc1cccc(CCOc2ccc(C[C@H](NC(=O)c3ccc(Cl)nc3Cl)C(=O)O)cc2)n1 [Example 2.4, N-[(2,6-dichloropyridin-3-yl)carbonyl]-O-{2-[6-(methylamino)pyridin-2-yl]ethyl}-L-tyrosine] | 7.41
CCc1cc(C(=O)N[C@@H](Cc2ccc(OCCc3cccc(NC)n3)cc2)C(=O)O)cs1 [Example 1.28, N-[(5-ethyl-3-thienyl)carbonyl]-O-{2-[6-(methylamino)pyridin-2-yl]ethyl}-L-tyrosine] | 7.12
O=C(N[C@@H](Cc1ccc(OCCc2ccc3c(n2)NCCC3)cn1)C(=O)O)c1sccc1Cl [Example 6, N-[(3-chlorothiophen-2-yl)carbonyl]-3-{5-[2-(5,6,7,8-tetrahydro-1,8-naphthyridin-2-yl)ethoxy]pyridin-2-yl}-L-alanine] | > 9.00
CNc1cccc(CCOc2ccc(C[C@H](NC(=O)c3cc(C)cs3)C(=O)O)cc2)n1 [Example 1.27, O-{2-[6-(methylamino)pyridin-2-yl]ethyl}-N-[(4-methyl-2-thienyl)carbonyl]-L-tyrosine] | 7.30
CNc1cccc(CCOc2ccc(C[C@H](NC(=O)c3cnccc3Cl)C(=O)O)cc2)n1 [Example 2.8, N-[(4-chloropyridin-3-yl)carbonyl]-O-{2-[6-(methylamino)pyridin-2-yl]ethyl}-L-tyrosine] | 8.10
Cc1cnccc1C(=O)N[C@@H](Cc1ccc(OCCc2ccc3c(n2)NCCO3)cc1)C(=O)O [Example 4.5, O-[2-(3,4-dihydro-2H-pyrido[3,2-b][1,4]oxazin-6-yl)ethyl]-N-[(3-methylpyridin-4-yl)carbonyl]-L-tyrosine] | 8.40
O=C(N[C@@H](Cc1ccc(OCCc2ccc3c(n2)NCCO3)cc1)C(=O)O)c1c(Cl)cncc1Cl [Example 4.1, N-[(3,5-dichloropyridin-4-yl)carbonyl]-O-[2-(3,4-dihydro-2H-pyrido[3,2-b][1,4]oxazin-6-yl)ethyl]-L-tyrosine] | > 9.00
CCSc1ncccc1C(=O)N[C@@H](Cc1ccc(OCCc2cccc(NC)n2)cc1)C(=O)O [Example 2.3, N-{[2-(ethylthio)pyridin-3-yl]carbonyl}-O-{2-[6-(methylamino)pyridin-2-yl]ethyl}-L-tyrosine] | 7.51
CNc1cccc(CCOc2ccc(C[C@H](NC(=O)c3scc(C)c3Cl)C(=O)O)cc2)n1 [Example 1.17, N-[(3-chloro-4-methyl-2-thienyl)carbonyl]-O-{2-[6-(methylamino)pyridin-2-yl]ethyl}-L-tyrosine] | 7.05
O=C(N[C@@H](Cc1ccc(OCCc2ccc3c(n2)NCCO3)cc1)C(=O)O)c1sccc1Cl [Example 4.2, N-[(3-chlorothiophen-2-yl)carbonyl]-O-[2-(3,4-dihydro-2H-pyrido[3,2-b][1,4]oxazin-6-yl)ethyl]-L-tyrosine] | 7.29
CNc1cccc(CCOc2ccc(C[C@H](NC(=O)c3nc(Cl)ccc3Cl)C(=O)O)cc2)n1 [Example 1.22, N-[(3,6-dichloropyridin-2-yl)carbonyl]-O-{2-[6-(methylamino)pyridin-2-yl]ethyl}-L-tyrosine] | 7.47
CNc1cccc(CCOc2ccc(C[C@H](NC(=O)c3ncccc3Cl)C(=O)O)cc2)n1 [Example 1.23, N-[(3-chloropyridin-2-yl)carbonyl]-O-{2-[6-(methylamino)pyridin-2-yl]ethyl}-L-tyrosine] | 7.62
O=C(N[C@@H](Cc1ccc(OCCc2ccc3c(n2)NCCC3)cc1)C(=O)O)c1sccc1Cl [Example 5.2, N-[(3-chlorothiophen-2-yl)carbonyl]-O-[2-(5,6,7,8-tetrahydro-1,8-naphthyridin-2-yl)ethyl]-L-tyrosine] | 9.00
CCn1nc(C)cc1C(=O)N[C@@H](Cc1ccc(OCCc2cccc(NC)n2)cc1)C(=O)O [Example 1.7, N-[(1-ethyl-3-methyl-1H-pyrazol-5-yl)carbonyl]-O-{2-[6-(methylamino)pyridin-2-yl]ethyl}-L-tyrosine] | 7.14
CNc1cccc(CCOc2ccc(C[C@H](NC(=O)c3sccc3Cl)C(=O)O)cc2)n1 [Example 1.1, N-[(3-chloro-2-thienyl)carbonyl]-O-{2-[6-(methylamino)pyridin-2-yl]ethyl}-L-tyrosine] | 7.92
CNc1cccc(CCOc2ccc(C[C@H](NC(=O)c3occc3C)C(=O)O)cc2)n1 [Example 1.6, O-{2-[6-(methylamino)pyridin-2-yl]ethyl}-N-(3-methyl-2-furoyl)-L-tyrosine] | 6.82
CNc1cccc(CCOc2ccc(C[C@H](NC(=O)c3cccn3C)C(=O)O)cc2)n1 [Example 1.4, O-{2-[6-(methylamino)pyridin-2-yl]ethyl}-N-[(1-methyl-1H-pyrrol-2-yl)carbonyl]-L-tyrosine] | 7.26
CNc1cccc(CCOc2ccc(C[C@H](NC(=O)c3cccnc3C)C(=O)O)cc2)n1 [Example 2.6, O-{2-[6-(methylamino)pyridin-2-yl]ethyl}-N-[(2-methylpyridin-3-yl)carbonyl]-L-tyrosine] | 7.47
CNc1cccc(CCOc2ccc(C[C@H](NC(=O)c3ncc(C(F)(F)F)cc3Cl)C(=O)O)cc2)n1 [Example 1.25, N-{[3-chloro-5-(trifluoromethyl)pyridin-2-yl]carbonyl}-O-{2-[6-(methylamino)pyridin-2-yl]ethyl}-L-tyrosine] | 7.44
COc1cscc1C(=O)N[C@@H](Cc1ccc(OCCc2ccc3c(n2)NCCC3)cc1)C(=O)O [Example 5.1, N-[(4-methoxythiophen-3-yl)carbonyl]-O-[2-(5,6,7,8-tetrahydro-1,8-naphthyridin-2-yl)ethyl]-L-tyrosine] | 7.38
CNc1cccc(CCOc2ccc(C[C@H](NC(=O)c3ncc(Cl)cc3Cl)C(=O)O)cc2)n1 [Example 1.24, N-[(3,5-dichloropyridin-2-yl)carbonyl]-O-{2-[6-(methylamino)pyridin-2-yl]ethyl}-L-tyrosine] | 7.46
CNc1cccc(CCOc2ccc(C[C@H](NC(=O)c3nc(C)oc3C)C(=O)O)cc2)n1 [Example 1.20, N-[(2,5-dimethyl-1,3-oxazol-4-yl)carbonyl]-O-{2-[6-(methylamino)pyridin-2-yl]ethyl}-L-tyrosine] | 6.46
CNc1cccc(CCOc2ccc(C[C@H](NC(=O)c3ccoc3C)C(=O)O)cc2)n1 [Example 1.12, O-{2-[6-(methylamino)pyridin-2-yl]ethyl}-N-(2-methyl-3-furoyl)-L-tyrosine] | 7.68
CNc1cccc(CCOc2ccc(C[C@H](NC(=O)c3c(C)nn(C)c3C)C(=O)O)cc2)n1 [Example 1.14, O-{2-[6-(methylamino)pyridin-2-yl]ethyl}-N-[(1,3,5-trimethyl-1H-pyrazol-4-yl)carbonyl]-L-tyrosine] | 7.89
CNc1cccc(CCOc2ccc(C[C@H](NC(=O)c3ccc(C)s3)C(=O)O)cc2)n1 [Example 1.3, O-{2-[6-(methylamino)pyridin-2-yl]ethyl}-N-[(5-methyl-2-thienyl)carbonyl]-L-tyrosine] | 6.64
CNc1cccc(CCOc2ccc(C[C@H](NC(=O)c3c(Cl)cncc3Cl)C(=O)O)cc2)n1 [Example 1.19, N-(3,5-dichloroisonicotinoyl)-O-{2-[6-(methylamino)pyridin-2-yl]ethyl}-L-tyrosine] | 9.00
